Experimental data: patent US20210100905A1, “APPLICATION OF COMPOUND OR TRADITIONAL CHINESE MEDICINE EXTRACT IN PREPARATION OF NUCLEIC ACID DELIVERY AGENT, AND RELATED PRODUCTS” (INSTITUTE OF BASIC MEDICAL SCIENCES CHINESE ACADEMY OF …, priority 2018, published 2021)

Assays:
A549 cell line = test: Fluorescence in situ hybridization (FISH) of small RNA; type: cell-based, human; details: FIG. 12
Method: 3.3.3 Fluorescence in Situ Hybridization (FISH) of Small RNA
2) Fix in 4% paraformaldehyde (500 μl/well, prepared in PBS buffer) at room temperature for 20 min.
4) PBS was removed, and cells were permeabilized with PK (proteinase K) buffer at room temperature for 10 min.
9) The culture plate was placed in a hybridization cassette in hybridization buffer (50% formamide, 5×SSC, 5×Denharts, 250 μg/mL yeast RNA, 500 μg/mL herring sperm DNA) and pre-incubated at room temperature for 1 hour.
10) Add RNA probes (HJT-sRNA-m7 probe: 5′-[…]-3′ (SEQ ID NO: 27), Scrambled probe: 5′-[…]-3′ (SEQ ID NO: 28), U6 probe: 5′-TTTGCGTGTCATCCTTGCG-3′ (SEQ ID NO: 29)) to the hybridization buffer (the concentration of RNA probes was 0.1-0.2 ng/μl), denature at 85° C. for 5 min, and quickly place it on ice. […]
Mixtures of soybean PC, lipid No. 11 (18:0/18:2) and lipid No. 12 (16:0/18:2), and various small RNA(see below Table 3) were prepared by the reverse evaporation method and then added into A549 cell line (the final concentration of sRNA was 200 nM); the negative control group (control) was directly added with the same concentration of sRNA; the positive control group (RNAimax) was transfected with Lipofectamine RNAimax (transfection reagent 6 μ/well). The abundance of sRNA in the cells was detected by Taqman probe after 3 hours, and the relative expression level of sRNA was calculated by 2-ΔCt method.

[1] = Luciferase reporter with 3′UTR of target gene after lipid-mediated small RNA delivery; type: cell-based; details: FIG. 13; mutated 3′UTR
[2] = test system: Luciferase with the wild-type 3′UTR in the target gene; test: as above; type: cell-based; details: FIG. 13; wild-type 3′UTR
[3] = test system: MRC-5 cell (lung fibroblast); test: In vitro delivery of lipid nucleic acid mixture, RT-qPCR of intracellular small RNA; type: cell-based; details: for delivery of double-stranded RNA into MRC-5 cells (real-time PCR) / delivery of HJT-sRNA-m7 single-stranded RNA into MRC-5 cells (real-time PCR): single lipid; for delivery of double-stranded RNA into MRC-5 cells (real-time PCR): boiling (heating) method, FIGS. 77, 91; for delivery of HJT-sRNA-m7 single-stranded RNA into MRC-5 cells (real-time PCR): boiling method, FIGS. 78, 92, 103
In short: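 A549 or MRC-5 cells seeded overnight, then given lipid–HJT-sRNA-m7 mixture (ether-evaporation or heated chloroform preparation) at 100 nM sRNA final for 12–24 h. After PBS washes, intracellular sRNA measured by stem-loop RT and SYBR Green qPCR; relative level by 2-ΔCt method with U6 reference.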

SMILES | localization of delivered nucleic acid (FISH) (A549 cell line) | action on Luciferase with mutated 3′UTR [1] | relative expression level of Luciferase with wild-type 3′UTR [2] | amount of HJT-sRNA-m7 that entered the cells (RT-qPCR) ([3]; Example 2-1, FIG. 33, double-stranded, 100 nM, 24 hours, boiling 100° C. 30 min, No. 38 series) | delivery effect relative to that of RNAiMAX (real-time PCR) ([3]; double-stranded RNA, heating method, FIG. 91) | delivery of double-stranded RNA into MRC-5 cells (real-time PCR) [3] | delivery of HJT-sRNA-m7 single-stranded RNA into MRC-5 cells (real-time PCR) [3] | delivery effect relative to that of RNAiMAX (real-time PCR) ([3]; double-stranded HJT-sRNA-m7, reverse evaporation method, FIG. 77)
CCCCC/C=C\C/C=C\CCCCCCCC(=O)O[C@H](COC(=O)CCCCCCCCCCCCCCCCC)COP(=O)([O-])OCC[N+](C)(C)C [No. 11, trimethyl(2-{[(2R)-2-[(9Z, 12Z)-octadeca-9,12-dienoyloxy]-3-(octadecanoyloxy)propyl-phosphonato]oxy}ethyl) azanium] | entered into cytoplasm and were primarily localized in cytoplasm | did not act on the mutated 3′UTR of their target genes | reduced the relative expression level of the Luciferase with the wild-type 3′UTR in the target gene | – | – | – | – | –
CCCCC/C=C\C/C=C\CCCCCCCC(=O)O[C@H](COC(=O)CCCCCCCCCCCCCCC)COP(=O)([O-])OCC[N+](C)(C)C [No. 12, (2-{[(2R)-3-(hexadecanoyloxy)-2-[(9Z,12Z)-octadeca-9,12-dienoyloxy]propylphosphonato]oxy}ethyl) trimethylazanium] | entered into cytoplasm and were primarily localized in cytoplasm | did not act on the mutated 3′UTR of their target genes | reduced the relative expression level of the Luciferase with the wild-type 3′UTR in the target gene | – | – | – | – | –
CCCCCC/C=C\CCCCCCCC(=O)O[C@H](COC(=O)CCCCCCCCCCCCCCC)COP(=O)(O)OCCN [No. 38, (2-aminoethoxy) [(2R)-2-[(9Z)-hexadec-9-enoyloxy]-3-(hexadecanoyloxy)propoxy] phosphinic acid] | – | – | – | effectively delivered nucleic acids into MRC-5 cells, showing an effect close to the transfection reagent RNAiMAX | about twice | delivered double-stranded RNA into A549 and MRC-5 cells | the efficiency of delivery was much higher than that of RNAiMAX | –
CCCCCCCCCCCCCCCCCCC[C@@H](O)[C@@H](N)CO [No. 41, Sphinganine (d22:0)] | – | – | – | – | – | delivered double-stranded RNA into MRC-5 cells | delivered HJT-sRNA-m7 single-stranded RNA into A549 and MRC-5 cells | significantly higher than that of RNAiMAX
